Measured values taken from patent US12319655B2, “RAF kinase inhibitors and methods of use thereof” (Deciphera Pharmaceuticals, LLC, priority 2021, dated 2025).

Legend:
[1] = target: C-Raf kinase (SEQ. ID NO: 3) (Homo sapiens (Human), UniProt P04049, Y340D/Y341D); assay: Biochemical Assay for C-Raf (1); settings: Table J, assay version (1); read-out: CRAF (1) IC50
Outline: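 IC50 values come from a four-parameter fit of percent inhibition, using the reaction rate over 4–5 h of a 6 h continuous 340 nm read at 30 °C. The enzyme mix was C-Raf 0.43 nM, MEK substrate 30.1 nM and ATP 1 mM, in a PK/LDH NADH-coupled format in Tris pH 7.5 with 1% DMSO.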

[2] = test system: Miapaca-2 cells; assay: MiaPaca-2 Cell Proliferation Assay (1); type: cell-based; settings: Homo sapiens, MIA PaCa-2, single agent, read-out: MiaPaca2 (1) IC50
Outline: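 Resazurin was added after compound exposure and incubated 5-6 h, then fluorescence read at 540 nm excitation and 600 nm emission to give IC50.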

[3] = target: A-Raf kinase (SEQ. ID No: 1) (Homo sapiens (Human), UniProt P10398, Y301D/Y302D); assay: Biochemical Assay for A-Raf (1); settings: Table J, assay version (1); read-out: ARAF (1) IC50
Outline: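 IC50 values were derived by four-parameter sigmoidal fitting of percent inhibition, calculated from reaction rates over the 4–5 h window. Absorbance at 340 nm was tracked for 6 h at 30 °C via coupled PK/LDH NADH depletion. Conditions: 1 mM ATP, 30.1 nM MEK substrate, 5.55 nM A-Raf (Y301D/Y302D), Tris pH 7.5, 1% DMSO.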

[4] = test system: A375 cells; assay: A375 Cell Proliferation Assay (1); type: cell-based; settings: Homo sapiens, A-375
Outline: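 Resazurin fluorescence (excitation 540 nm, emission 600 nm, after a further 5-6 h) gave IC50s from triplicate compound dilution series.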

Sequence of A-Raf kinase (SEQ. ID No: 1) (P10398 other isoform, or with tags, fused parts or gaps Y301D (already in the parent)/Y302D (already in the parent)): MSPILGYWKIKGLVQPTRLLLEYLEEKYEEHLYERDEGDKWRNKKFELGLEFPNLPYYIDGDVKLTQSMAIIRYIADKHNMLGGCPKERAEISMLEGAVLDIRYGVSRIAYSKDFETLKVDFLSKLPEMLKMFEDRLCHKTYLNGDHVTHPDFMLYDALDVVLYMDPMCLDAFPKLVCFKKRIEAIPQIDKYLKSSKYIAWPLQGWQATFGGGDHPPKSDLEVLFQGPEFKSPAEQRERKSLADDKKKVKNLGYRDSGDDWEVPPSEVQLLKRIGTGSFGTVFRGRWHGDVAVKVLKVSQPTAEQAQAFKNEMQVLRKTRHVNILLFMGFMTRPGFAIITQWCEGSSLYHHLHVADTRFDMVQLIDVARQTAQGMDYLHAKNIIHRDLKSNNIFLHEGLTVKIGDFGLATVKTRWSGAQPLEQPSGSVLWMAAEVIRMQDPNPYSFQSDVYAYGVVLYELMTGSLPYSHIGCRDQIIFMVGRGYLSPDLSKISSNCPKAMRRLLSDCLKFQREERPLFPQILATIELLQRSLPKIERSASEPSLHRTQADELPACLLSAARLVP
Sequence of C-Raf kinase (SEQ. ID NO: 3) (P04049 307-648 Y340D/Y341D): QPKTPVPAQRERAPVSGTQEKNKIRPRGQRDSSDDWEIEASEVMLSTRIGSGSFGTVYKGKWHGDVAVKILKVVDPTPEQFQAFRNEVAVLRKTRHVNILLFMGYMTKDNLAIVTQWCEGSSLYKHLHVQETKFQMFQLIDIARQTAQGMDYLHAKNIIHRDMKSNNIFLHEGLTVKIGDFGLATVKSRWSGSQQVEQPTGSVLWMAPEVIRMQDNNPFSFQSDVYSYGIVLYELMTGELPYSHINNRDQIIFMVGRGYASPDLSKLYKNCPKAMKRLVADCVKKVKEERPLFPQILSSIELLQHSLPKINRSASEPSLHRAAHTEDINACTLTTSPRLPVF

IC50 [1] [nM]	IC50 [2] [nM]	IC50 [3] [nM]	IC50 [4] [nM]	SMILES
≤ 100	1000 to 10000	1000 to 10000	100 to 500	Cc1ncc(NC(=O)c2cnn(C(C)(C)C)c2)cc1-c1cccc(-c2cc(NC(=O)C3CC3)ncn2)c1 [Example 279]
≤ 100	1000 to 10000	1000 to 10000	100 to 500	Cc1ccc(NC(=O)c2ccnc(C(F)(F)F)c2)cc1-c1ccnc(-c2ccnc(NC(=O)CN(C)C)c2)c1 [Example 17]
≤ 100	1000 to 10000	1000 to 10000	1000 to 10000	Cc1ncc(NC(=O)c2cnnc(C3CC3)c2)cc1-c1ccnc(-c2ccnc(NC(=O)C3CC3)c2)n1 [Example 278]
≤ 100	1000 to 10000	1000 to 10000	≤ 100	CNC(=O)c1cc(-c2cc(-c3cc(NC(=O)c4ccnc(C(C)(C)F)c4)ccc3C)ccn2)ccn1 [Example 214]
≤ 100	1000 to 10000	500 to 1000	≤ 100	Cc1ccc(NC(=O)c2ccnc(C(C)(C)C#N)c2)cc1-c1ccnc(-c2ccnc(NC(=O)C3CC3)c2)n1 [Example 257]
≤ 100	1000 to 10000	100 to 500	≤ 100	Cc1ccc(NC(=O)c2ccnc(C3(C#N)CC3)c2)cc1-c1nccc(-c2ccnc(NC(=O)C3CC3)c2)n1 [Example 187]
≤ 100	1000 to 10000	500 to 1000	100 to 500	Cc1ccc(NC(=O)c2ccnc(C(F)F)c2)cc1-c1ccnc(-c2ccnc(NC(=O)C3CC3)c2)n1 [Example 189]
≤ 100	1000 to 10000	100 to 500	100 to 500	Cc1ccc(NC(=O)c2ccnc(C3CC3)c2)cc1-c1ccnc(-c2ccnc(NC(=O)C3CC3)c2)n1 [Example 229]
≤ 100	1000 to 10000	1000 to 10000	1000 to 10000	Cc1cc(C(=O)Nc2cnc(C)c(-c3ccnc(-c4ccnc(NC(=O)C5CC5)c4)n3)c2)ccn1 [Example 273]
≤ 100	1000 to 10000	1000 to 10000	≤ 100	Cc1ncc(NC(=O)c2ccnc(C(C)(C)C#N)c2)cc1-c1ccnc(-c2ccnc(NC(=O)C3CC3)c2)c1 [Example 251]
≤ 100	1000 to 10000	1000 to 10000	≤ 100	Cc1ccc(NC(=O)c2ccnc(C(C)(C)C#N)c2)cc1-c1cccc(-c2cc(NC(=O)C3(F)CC3)ncn2)c1 [Example 200]
≤ 100	1000 to 10000	1000 to 10000	100 to 500	Cc1ncc(NC(=O)c2ccnc(C3CC3)c2)cc1-c1ccnc(-c2ccnc(NC(=O)C3CC3)c2)c1 [Example 253]
≤ 100	1000 to 10000	1000 to 10000	≤ 100	CNC(=O)c1cc(-c2cccc(-c3cc(NC(=O)c4ccnc(C(C)(C)C#N)c4)cnc3C)c2)ccn1 [Example 192]
≤ 100	1000 to 10000	1000 to 10000	100 to 500	CCOc1cc(-c2cc(NC(=O)c3ccnc(C(F)(F)F)c3)ccc2C)cc(-c2ccnc(NC(=O)C3CC3)c2)n1 [Example 12]
≤ 100	100 to 500	500 to 1000	≤ 100	Cc1ccc(NC(=O)c2ccnc(C(C)(C)C#N)c2)cc1-c1cncc(-c2cc(NC(=O)C3CC3)ncn2)c1 [Example 224]
≤ 100	1000 to 10000	1000 to 10000	1000 to 10000	Cc1ccc(NC(=O)c2ccnc(C(F)(F)F)c2)cc1-c1ccnc(-c2ccnc3c2CC(=O)N3)c1 [Example 18]
≤ 100	1000 to 10000	500 to 1000	≤ 100	Cc1ncc(NC(=O)c2ccnc(C(C)(C)C#N)c2)cc1-c1cccc(-c2ccnc(NC(=O)C3CC3)c2)c1 [Example 222]

IC50 [1] [nM]	IC50 [2] [nM]	IC50 [3] [nM]	IC50 [4] [nM]	SMILES
≤ 100	1000 to 10000	1000 to 10000	1000 to 10000	Cc1cc(F)c(NC(=O)c2cnnc(C3CC3)c2)cc1-c1nccc(-c2ccnc(NC(=O)C3CC3)c2)n1 [Example 252]
≤ 100	1000 to 10000	1000 to 10000	≤ 100	CNC(=O)c1cc(-c2cc(-c3cc(NC(=O)c4ccnc(C5(C#N)CC5)c4)ccc3C)ccn2)ccn1 [Example 265]
≤ 100	1000 to 10000	1000 to 10000	≤ 100	Cc1ccc(NC(=O)c2cc(CN(C)C)cc(C(F)(F)F)c2)cc1-c1cccc(-c2cc(NC(=O)C3CC3)ncn2)c1 [Example 202]
≤ 100	1000 to 10000	1000 to 10000	500 to 1000	CNC(=O)c1cc(-c2cc(-c3cc(NC(=O)c4cnnc(C5CC5)c4)ccc3C)ccn2)ccn1 [Example 215]
≤ 100	1000 to 10000	1000 to 10000	1000 to 10000	Cc1ccc(NC(=O)c2ccnc(C(F)(F)F)c2)cc1-c1cc(-c2ccnc(NC(=O)C3CC3)c2)n(C)c(=O)c1 [Example 13]
≤ 100	1000 to 10000	1000 to 10000	≤ 100	CNC(=O)c1cc(-c2cc(-c3cc(NC(=O)c4cccc(C(C)(C)C#N)c4)ccc3C)cc(OCCO)n2)ccn1 [Example 231]
≤ 100	1000 to 10000	1000 to 10000	≤ 100	COC(C)(C)c1cc(C(=O)Nc2cnc(C)c(-c3cccc(-c4cc(NC(=O)C5CC5)ncn4)c3)c2)ccn1 [Example 274]
≤ 100	1000 to 10000	1000 to 10000	100 to 500	Cc1ncc(NC(=O)c2ccnc(C3CC3)c2)cc1-c1cccc(-c2ccnc(NC(=O)C3CC3)c2)n1 [Example 270]
≤ 100	1000 to 10000	1000 to 10000	≤ 100	Cc1cc(-c2cc(NC(=O)C3CC3)ncn2)cc(-c2cc(NC(=O)c3ccnc(C(C)(C)C#N)c3)ccc2C)c1 [Example 212]
≤ 100	1000 to 10000	500 to 1000	≤ 100	Cc1cc(F)c(NC(=O)c2ccnc(C3(C#N)CC3)c2)cc1-c1ccnc(-c2ccnc(NC(=O)C3CC3)c2)n1 [Example 262]
≤ 100	1000 to 10000	1000 to 10000	500 to 1000	Cc1ncc(NC(=O)c2ccnc(C3CC3)c2)cc1-c1cnc(C)c(-c2ccnc(NC(=O)C3CC3)c2)c1 [Example 256]
≤ 100	1000 to 10000	1000 to 10000	100 to 500	Cc1ccc(NC(=O)c2cnnc(C3CC3)c2)cc1-c1ccnc(-c2ccnc(NC(=O)C3CC3)c2)n1 [Example 250]
≤ 100	1000 to 10000	1000 to 10000	≤ 100	Cc1ncc(NC(=O)c2ccnc(C(C)(C)C#N)c2)cc1-c1ccnc(-c2ccnc(NC(=O)C3CC3)c2)n1 [Example 193]
≤ 100	1000 to 10000	1000 to 10000	100 to 500	Cc1ccc(NC(=O)c2ccnc(C(C)(C)C#N)c2)cc1-c1cccc(-c2cc(N)ncn2)c1 [Example 267]
≤ 100	1000 to 10000	1000 to 10000	1000 to 10000	Cc1ncc(NC(=O)c2cnnc(C3CC3)c2)cc1-c1ccnc(-c2ccnc(NC(=O)C3CC3)c2)c1 [Example 254]
500 to 1000	1000 to 10000	1000 to 10000	1000 to 10000	Cc1ncc(NC(=O)c2ccnc(C(C)(C)C#N)c2)cc1-c1cccc(-c2cc(NC(=O)C3CC3)ncn2)n1 [Example 226]
